Measurements: paper PMC8227885 (Viruses, 2021)

Biological target: SARS-CoV-2 RBD:ACE2 (UniProt P0DTC2+Q9BYF1)
Assay: biochemical
Set-up: species or system SARS-CoV-2 (RBD); human (ACE2)

Chain of SARS-CoV-2 RBD:ACE2 (Q9BYF1 18-615, one chain of several): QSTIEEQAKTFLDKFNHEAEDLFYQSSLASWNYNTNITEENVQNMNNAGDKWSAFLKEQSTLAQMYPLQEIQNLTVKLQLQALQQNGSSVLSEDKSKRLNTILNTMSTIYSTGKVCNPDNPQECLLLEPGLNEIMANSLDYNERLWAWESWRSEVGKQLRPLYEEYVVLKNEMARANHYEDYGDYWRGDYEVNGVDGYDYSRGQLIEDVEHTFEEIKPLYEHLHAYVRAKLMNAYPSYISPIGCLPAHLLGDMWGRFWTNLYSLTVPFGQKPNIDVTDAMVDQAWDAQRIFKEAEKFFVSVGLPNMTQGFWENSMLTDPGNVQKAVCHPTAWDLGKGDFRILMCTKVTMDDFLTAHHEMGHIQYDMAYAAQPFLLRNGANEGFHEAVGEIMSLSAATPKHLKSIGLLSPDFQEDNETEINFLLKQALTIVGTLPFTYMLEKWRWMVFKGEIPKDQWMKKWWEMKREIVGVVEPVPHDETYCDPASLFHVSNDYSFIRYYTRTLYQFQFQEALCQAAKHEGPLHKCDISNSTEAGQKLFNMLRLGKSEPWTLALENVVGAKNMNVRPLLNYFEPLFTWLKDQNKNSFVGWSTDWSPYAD

Which results are given for `O=c1c(O)cc([C@H]2Oc3cc(O)cc(O)c3C[C@H]2O)cc2c([C@H]3Oc4cc(O)cc(O)c4C[C@H]3O)cc(O)c(O)c12` [Theaflavin]?
IC50: 41.7 µM; effect on SRAE2-BS activity (suppression): significantly suppressed SRAE2-BS activity
